Consider 1 molecule from US20040033276A1, “Coating composition for cereals having a preventive or treating effect on diabetes and cereals coated thereby” (priority 2002, published 2004).

The test system of the assay is α-glucosidase. The experiment in a line: Inhibition of α-glucosidase by extracts of herb medicine. Format: biochemical. The note with it: 0.1 ml extract. The protocol:
Inhibitory activities of various herb extracts on the activity of α-glucosidase, which catalyzes the digestion of a polysaccharide to monosaccharides, were examined as follows. Extracts of various herb medicines listed in Table 4 below were prepared in accordance with the method of Reference Example 2. Added to 0.27 ml of 2 mM substrate (p-nitrophenyl-α-D-glucopyranoside, Sigma, U.S.A.) were 0.03 ml of α-glucosidase(Sigma, U.S.A.), 0.2 ml of 20 mM phosphate buffer (pH 7.0) and 0.1 ml of respective extracts obtained above. The resulting mixture was incubated in a 37° C. thermostat(Vision Science, Korea) for 30 minutes, and 0.5 ml of 1 M glycine-NaOH (pH 9.0) was added thereto to stop the reaction. […] Negative control was treated with distilled water instead of the herb extract, and positive control, with acarbose(Glucobay™, Bayer) and DNJ (Deoxynojirimycin, Dep. Seruculture & Entomology, NIAST), which are representative α-glucosidase inhibitors. Activities of the respective extracts for inhibiting α-glucosidase were calculated by the following equation and the result is shown in Table 4. Inhibition (%)=(1−Absorbance of a sample/Absorbance of the negative control)×100

Turning to `OC[C@H]1NC[C@H](O)[C@@H](O)[C@@H]1O` [DNJ, Deoxynojirimycin], where the note is “relative to negative control”, the “Inhibition (%)” value is 80.79%. For the setting “405 nm, 37° C., 30 minutes”, this molecule displayed an Absorbance of 0.7641 ± 0.0021.
